Laboratory results reported in publication PMC7002685, “Inhibition of vascular calcification by inositol phosphates derivatized with ethylene glycol oligomers” (Nature Communications, 2020).

Columns and labels:
Dopamine D2S = target: T1, Dopamine D2S (Homo sapiens, UniProt P14416); experiment: Off-target 219700; type: binding
T1 construct: purchased Eurofins Panlabs Discovery Services Taiwan, Ltd
Protocol: (§1) The potential off-target activity of 10 µM (OEG2)2-IP4 was assessed against a panel of 87 enzymes, receptors, or ion channels that are used in standard safety pharmacology screens.
(§2) 3.2. Off-target screening assay
(§3) The experiments were conducted by a contract research organization (Eurofins Panlabs Discovery Services Taiwan, Ltd.) and details on the respective assays can be retrieved via the catalog number provided in Supplementary Table 11 from the company’s webpage
(§4) (https://www.eurofinsdiscoveryservices.com/). […]
(§5) At sacrifice the left tibia of animals of the rat model with dietary adenine/high-phosphate-induced uremia and VC was collected, fixed with 70% v/v EtOH and embedded in methyl methacrylate. The trabecular bone compartment is known to be the most metabolic active i.e. actively re-structured bone compartment in CKD. Therefore, histomorphometric and micro-computed tomography (µCT) analysis of bone was performed on the trabecular compartment. Tibial sections were Goldner-stained for histomorphometric analysis of the proximal metaphysis using the AxioVision Release 4.5 software, as […]
(§6) described previously5. […]

[1] = tested on: GABAA, Flunitrazepam, Central; experiment: Off-target 226600; type: binding, Rat; details: 10 µM
Protocol: as §1, §2
(§7) The experiments were conducted by a contract research organization (Eurofins Panlabs Discovery
(§8) Services Taiwan, Ltd.) and details on the respective assays can be retrieved via the catalog number
(§9) provided in Supplementary Table 11 from the company’s webpage
as §4

[2] = tested on: Glycine, Strychnine-Sensitive; experiment: Off-target 239000; type: binding, Rat; details: 10 µM
Opiate δ1 (OP1, DOP) = target: T2, Opiate δ1 (OP1, DOP) (Homo sapiens, UniProt P41143); experiment: Off-target 260130; type: binding
T2 construct: purchased Eurofins Panlabs Discovery Services Taiwan, Ltd
T2 sequence (P41143 whole entry): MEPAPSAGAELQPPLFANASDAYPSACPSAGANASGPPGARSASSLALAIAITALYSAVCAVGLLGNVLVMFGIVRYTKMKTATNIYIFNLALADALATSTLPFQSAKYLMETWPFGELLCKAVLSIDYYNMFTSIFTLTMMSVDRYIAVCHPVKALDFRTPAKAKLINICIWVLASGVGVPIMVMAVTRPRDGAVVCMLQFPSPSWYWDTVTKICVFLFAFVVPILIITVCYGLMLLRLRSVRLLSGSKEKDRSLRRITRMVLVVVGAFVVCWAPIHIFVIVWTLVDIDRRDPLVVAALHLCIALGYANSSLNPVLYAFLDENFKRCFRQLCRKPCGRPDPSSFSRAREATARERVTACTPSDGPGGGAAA
Protocol: as §1, §2, §7, §8, §9, §4

[3] = target: T3, Transporter, Dopamine (DAT) (Homo sapiens, UniProt Q01959); experiment: Off-target 220320; type: binding
T3 construct: purchased Eurofins Panlabs Discovery Services Taiwan, Ltd
T3 sequence (Q01959 whole entry): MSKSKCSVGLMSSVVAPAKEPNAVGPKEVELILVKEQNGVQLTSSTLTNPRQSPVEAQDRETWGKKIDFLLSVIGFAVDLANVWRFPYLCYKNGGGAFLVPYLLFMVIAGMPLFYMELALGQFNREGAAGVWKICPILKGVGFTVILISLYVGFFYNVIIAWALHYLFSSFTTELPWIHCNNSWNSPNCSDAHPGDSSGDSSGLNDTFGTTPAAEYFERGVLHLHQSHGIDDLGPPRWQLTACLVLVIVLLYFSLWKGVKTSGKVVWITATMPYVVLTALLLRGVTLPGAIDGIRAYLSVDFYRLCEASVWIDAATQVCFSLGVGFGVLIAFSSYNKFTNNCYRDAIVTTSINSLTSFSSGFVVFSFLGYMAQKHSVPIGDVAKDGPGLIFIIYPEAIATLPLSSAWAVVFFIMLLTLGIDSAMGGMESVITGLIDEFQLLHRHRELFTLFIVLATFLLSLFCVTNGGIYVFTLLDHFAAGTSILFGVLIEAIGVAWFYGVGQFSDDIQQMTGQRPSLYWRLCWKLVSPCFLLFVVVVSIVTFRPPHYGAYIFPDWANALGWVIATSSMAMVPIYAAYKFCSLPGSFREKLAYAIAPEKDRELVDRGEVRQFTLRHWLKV
Protocol: as §1, §2, §7, §8, §9, §4

Estrogen ERα = target: T4, Estrogen ERα (Homo sapiens, UniProt P03372); experiment: Off-target 226010; type: binding
T4 construct: purchased Eurofins Panlabs Discovery Services Taiwan, Ltd
T4 sequence (P03372 whole entry): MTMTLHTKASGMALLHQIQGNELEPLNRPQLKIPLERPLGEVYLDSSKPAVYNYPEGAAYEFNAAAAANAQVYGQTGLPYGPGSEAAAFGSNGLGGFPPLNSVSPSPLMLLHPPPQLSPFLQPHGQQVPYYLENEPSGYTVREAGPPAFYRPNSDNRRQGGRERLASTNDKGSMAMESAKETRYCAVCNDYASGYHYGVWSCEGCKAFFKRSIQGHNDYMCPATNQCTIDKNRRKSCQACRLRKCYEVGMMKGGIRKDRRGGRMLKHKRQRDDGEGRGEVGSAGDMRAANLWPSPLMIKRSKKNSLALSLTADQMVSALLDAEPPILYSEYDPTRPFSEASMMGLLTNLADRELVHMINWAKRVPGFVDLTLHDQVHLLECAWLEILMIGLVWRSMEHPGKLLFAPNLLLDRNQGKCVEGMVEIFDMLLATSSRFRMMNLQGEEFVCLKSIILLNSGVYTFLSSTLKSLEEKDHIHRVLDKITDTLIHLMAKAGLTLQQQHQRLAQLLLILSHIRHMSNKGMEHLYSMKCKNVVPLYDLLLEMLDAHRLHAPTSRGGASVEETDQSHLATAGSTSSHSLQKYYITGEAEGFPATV
Protocol: as §1, §2, §3, §4, §5, §6

[4] = target: T5, ATPase, Na+/K+, Heart, Pig (Sus scrofa, UniProt P05024); experiment: Off-target 107710; type: biochemical
T5 construct: purchased Eurofins Panlabs Discovery Services Taiwan, Ltd
Protocol: as §1, §2, §7, §8, §9, §4

[5] = tested on: Calcium Channel L-Type, Dihydropyridine; experiment: Off-target 214600; type: binding, Rat; details: 10 µM
Protocol: as §1, §2, §7, §8, §9, §4

serum CPP = experiment: CPP calcium, CPP2 hydrodynamic diameter and T50 in rat sera at sacrifice; type: in vivo, male Wistar rats; details: 5, 15, 50 mg/kg/day
Protocol: The inhibitory effect of (OEG2)2-IP4 on heart calcifications was significant starting at 15 mg/kg/day (Fig. 6b). The compound’s activity was also evident following von Kossa staining (Fig. 6c) on the thoracic part of the aorta, and quantification of the von Kossa-positive area (Fig. 6d). […] In the femoral artery, reduction in bulk calcium was insignificant for all tested groups, likely due to the low level of calcification detected in the vehicle control (Fig. 6f, Supplementary Table 9).
DLS analysis of CPPs induced in serum samples collected from in vivo adenine-induced VC studies and stored at −20 °C was performed as described for human serum samples and CPP hydrodynamic diameter development was monitored by hourly DLS measurements.
The first group was treated with vehicle (double distilled (d.d.) water), the second, third, and fourth groups were treated with daily doses equivalent of 5, 15, and 50 mg/kg of (OEG2)2-IP4, respectively, in 2 mL d.d. water starting 1 week after the administration of the adenine diet. […] Serum samples were analyzed for creatinine according to the Jaffe method, calcium (using flame atomic absorption spectrometry[74]), and phosphate (DiaSys Diagnostic Systems, Holzheim, Germany) concentrations. […] In addition, serum aliquots were centrifuged (10,000 × g, 4 °C, 30 min) and T50’s were determined as described above. […]

Cyclooxygenase COX-2 = target: T6, Cyclooxygenase COX-2 (Homo sapiens, UniProt P35354); experiment: Off-target 118010; type: biochemical
T6 construct: purchased Eurofins Panlabs Discovery Services Taiwan, Ltd
T6 sequence (P35354 18-604): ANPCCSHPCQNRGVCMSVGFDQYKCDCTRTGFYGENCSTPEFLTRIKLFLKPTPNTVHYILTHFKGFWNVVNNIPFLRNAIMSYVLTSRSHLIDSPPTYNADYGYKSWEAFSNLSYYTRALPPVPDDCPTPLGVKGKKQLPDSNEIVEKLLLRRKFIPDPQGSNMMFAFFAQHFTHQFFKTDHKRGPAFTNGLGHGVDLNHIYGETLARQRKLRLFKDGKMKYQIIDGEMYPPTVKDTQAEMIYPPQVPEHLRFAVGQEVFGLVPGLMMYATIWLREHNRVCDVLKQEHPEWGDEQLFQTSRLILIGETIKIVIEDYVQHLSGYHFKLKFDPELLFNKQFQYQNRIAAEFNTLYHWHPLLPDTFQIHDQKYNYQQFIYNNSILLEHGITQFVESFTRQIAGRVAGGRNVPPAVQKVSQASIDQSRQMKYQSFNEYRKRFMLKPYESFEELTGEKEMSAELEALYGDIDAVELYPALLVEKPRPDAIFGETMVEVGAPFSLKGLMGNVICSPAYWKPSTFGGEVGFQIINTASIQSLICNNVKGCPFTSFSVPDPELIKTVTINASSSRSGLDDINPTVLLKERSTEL
Protocol: as §1, §2, §3, §4, §5, §6

Angiotensin AT1 = target: T7, Angiotensin AT1 (Homo sapiens, UniProt P30556); experiment: Off-target 210030; type: binding
T7 construct: purchased Eurofins Panlabs Discovery Services Taiwan, Ltd
T7 sequence (P30556 whole entry): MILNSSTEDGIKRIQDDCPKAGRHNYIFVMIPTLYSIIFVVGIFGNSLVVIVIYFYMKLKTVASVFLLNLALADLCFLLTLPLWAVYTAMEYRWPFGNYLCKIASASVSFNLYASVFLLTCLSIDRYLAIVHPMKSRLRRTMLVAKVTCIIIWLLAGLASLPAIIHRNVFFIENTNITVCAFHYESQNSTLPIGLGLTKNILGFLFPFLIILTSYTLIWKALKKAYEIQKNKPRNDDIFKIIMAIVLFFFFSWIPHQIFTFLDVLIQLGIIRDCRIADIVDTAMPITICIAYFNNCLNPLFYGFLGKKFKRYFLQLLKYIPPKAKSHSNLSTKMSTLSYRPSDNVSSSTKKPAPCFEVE
Protocol: as §1, §2, §3, §4, §5, §6

[6] = Precipitation in culture medium (naked eye, microscope); type: physicochemical; details: 100 µM, VSMC and macrophage assays
Protocol: Macrophage accumulation and inflammation coincide with the initial phase of calcification. To this end, VSMCs and THP-1-derived macrophages were exposed to CPP2-supplemented medium. CPP2 prepared from human serum as described previously[61] (Supplementary Figs. 6 and 7), induced a pronounced VSMC monolayer calcification after 48 h, which was decreased by (OEG2)2-IP4 in a dose-dependent fashion, and the effect became significant at 10 µM (Fig. 3e). […] Both H2O2 (proxy for oxidative stress) and tumor necrosis factor-alpha (TNF-α) (proxy for inflammatory response) levels were assayed in the VSMC culture supernatants subsequent to CPP2 treatment with and without compounds[30]. However, no increase in H2O2 nor TNF-α compared to control could be detected in either assay. For the CPP-induced VSMC calcification assay (Fig. 3e) a roughly 10-fold higher concentration of (OEG2)2-IP4 was necessary to achieve similar activity as in the CaP-induced VSMC calcification assay (Fig. 3b). […]
Occurrence of precipitation in the different treatment groups was assessed visually by the naked eye and by a microscope (CTR6000, Leica Camera AG) at ×25 magnification at 0 and 24 h (performed once in duplicate).

T1 sequence (P14416 1-414 isoform P14416-2): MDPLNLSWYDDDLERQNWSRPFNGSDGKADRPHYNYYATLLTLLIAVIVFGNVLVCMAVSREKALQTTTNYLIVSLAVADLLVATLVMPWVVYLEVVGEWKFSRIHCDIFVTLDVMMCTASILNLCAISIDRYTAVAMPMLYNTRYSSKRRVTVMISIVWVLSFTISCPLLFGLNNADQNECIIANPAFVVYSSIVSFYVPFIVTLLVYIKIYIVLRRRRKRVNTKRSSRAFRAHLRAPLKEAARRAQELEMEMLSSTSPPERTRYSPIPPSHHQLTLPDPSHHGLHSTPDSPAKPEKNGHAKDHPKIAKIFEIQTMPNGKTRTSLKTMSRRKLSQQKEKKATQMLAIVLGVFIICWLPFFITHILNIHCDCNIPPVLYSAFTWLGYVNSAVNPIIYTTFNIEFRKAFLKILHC

| SMILES | inhibition at 10 µM (Dopamine D2S) | % Inhibition [1] | % Inhibition [2] | inhibition at 10 µM (Opiate δ1 (OP1, DOP)) | inhibition at 10 µM [3] | inhibition at 10 µM (Estrogen ERα) | inhibition at 10 µM [4] | % Inhibition [5] | serum CPP calcium content, CPP2 hydrodynamic diameter and T50 in sera at sacrifice (serum CPP) | inhibition at 10 µM (Cyclooxygenase COX-2) | inhibition at 10 µM (Angiotensin AT1) | precipitation in culture medium [6] |
| --- | --- | --- | --- | --- | --- | --- | --- | --- | --- | --- | --- | --- |
| COCCOCCO[C@@H]1[C@@H](OP(=O)(O)O)[C@H](OCCOCCOC)[C@@H](OP(=O)(O)O)[C@@H](OP(=O)(O)O)[C@H]1OP(=O)(O)O [(OEG2)2-IP4, 4,6-Di-O-(methoxy-diethyleneglycol)-myo-inositol-1,2,3,5-tetrakis(phosphate)] | 7% | -7% | -2% | -2% | 19% | -1% | 6% | 1% | did not differ between treatment groups | 8% | 0% | – |
| O=P(O)(O)O[C@H]1[C@H](OP(=O)(O)O)[C@@H](OP(=O)(O)O)[C@H](OP(=O)(O)O)[C@@H](OP(=O)(O)O)[C@H]1OP(=O)(O)O [IP6, myo-Inositol hexakisphosphate] | – | – | – | – | – | – | – | – | – | – | – | precipitation in culture medium occurred |
